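Interpolation was linear, between the two tested concentrations surrounding the appropriate level; five concentrations were tested over 48 hours in 96-well plates. Here, GI50 denotes the concentration required for 50% inhibition of growth.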 Calls of active or inactive are those of the source. Cut-off read from the data, not from the text of the source: active = GI50 up to about 1.1 µM and inactive = higher.
Tests used:
Assay in all cases: DTP human tumour cell line panel, 48 h
[1] = test system: UACC-257
[2] = test system: MOLT-4
[3] = test system: SW-620
[4] = test system: MDA-N
[5] = test system: EKVX
[6] = test system: HCT-15
[7] = test system: 786-0
[8] = test system: UACC-62
[9] = test system: ACHN
[10] = test system: HOP-62
[11] = test system: OVCAR-3
[12] = test system: RPMI-8226
[13] = test system: OVCAR-4
[14] = test system: MDA-MB-435
[15] = test system: HCC 2998
[16] = test system: HT-29
[17] = test system: UO-31
[18] = test system: LOX IMVI
[19] = test system: NCI-H226
[20] = test system: TK-10

SMILES | GI50 [1] | GI50 [2] | GI50 [3] | GI50 [4] | GI50 [5] | GI50 [6] [µM] | GI50 [7] | GI50 [8] | GI50 [9] | GI50 [10] | GI50 [11] | GI50 [12] | GI50 [13] | GI50 [14] | GI50 [15] | GI50 [16] | GI50 [17] | GI50 [18] | GI50 [19] | GI50 [20]
CCOC(=O)NC(=S)c1ccc(O)c2ccccc12 | > 100 µM (inactive) | 36.1 µM (inactive) | 51.6 µM (inactive) | 26.4 µM (inactive) | 27.9 µM (inactive) | 36.6 | > 100 µM (inactive) | 68.1 µM (inactive) | 80.5 µM (inactive) | 77.1 µM (inactive) | 49.8 µM (inactive) | 74.5 µM (inactive) | > 100 µM (inactive) | 40.7 µM (inactive) | 91 µM (inactive) | 66.1 µM (inactive) | 45.6 µM (inactive) | 28.6 µM (inactive) |  | 
O=[N+]([O-])/C=C/c1cc2ccccc2[nH]1 | 15.4 µM (inactive) | 15.2 µM (inactive) | 8.83 µM (inactive) | 3.24 µM (inactive) | 29.2 µM (inactive) | 21.5 | 14.6 µM (inactive) | 18.2 µM (inactive) | 17 µM (inactive) | 16.5 µM (inactive) | 14.8 µM (inactive) | 2.96 µM (inactive) | 14.1 µM (inactive) | 2.59 µM (inactive) |  | 15.8 µM (inactive) | 14.8 µM (inactive) | 14.2 µM (inactive) | 19.1 µM (inactive) | 17.5 µM (inactive)
O=C(/C=C/c1ccsc1)c1cccs1 | 66.8 µM (inactive) | > 10 µM (inactive) | 17.3 µM (inactive) | 35 µM (inactive) | 41.3 µM (inactive) | 18.7 | 49.3 µM (inactive) | 25.4 µM (inactive) | 52.1 µM (inactive) | > 100 µM (inactive) | 22.1 µM (inactive) |  | 44.8 µM (inactive) | > 10 µM (inactive) | 19.7 µM (inactive) | 36.9 µM (inactive) | 18.5 µM (inactive) |  | > 100 µM (inactive) | 23.1 µM (inactive)
COC1=C(OC)C(=O)C(Cc2c(Cl)nc3sc(C)cn23)=C(C)C1=O | 10.4 µM (inactive) | 1.29 µM (inactive) | 21.3 µM (inactive) | 15.8 µM (inactive) | 17.3 µM (inactive) | 24.9 | 19.9 µM (inactive) | 11.6 µM (inactive) | 17.1 µM (inactive) | 19.3 µM (inactive) | 12.2 µM (inactive) | 11.2 µM (inactive) | 7.5 µM (inactive) | 18.2 µM (inactive) | 17.2 µM (inactive) | 17.9 µM (inactive) | 17.1 µM (inactive) | 11.7 µM (inactive) |  | 16.4 µM (inactive)

— ChEMBL document CHEMBL1201862, “PubChem BioAssay data set” (2004)
